Like-named read-outs stand apart in the source and are kept apart here.

Data set [1] can be described thus: Pharmacokinetic test of rats (Glc-S-C5-Ala-DEX) (Test 10 (1)). The note with it: male, rat, iv, Group B, i.v. 100 nmol/kg, n = 3, average ± SD. The format is in vivo. The source says: For both the groups, the dose was 100 nmol/kg.
Plasma was fractionated from the collected blood according to the conventional method. Further, the kidney and the liver were extracted. The plasma was deprotenized, and the organs were homogenized and deprotenized, followed by separation by reversed phase liquid chromatography. Thereafter, Glc-S-C5-Ala-DEX and dexamethasone were detected and quantitatively determined by UV detector.

A short description of data set [2]: Renal selectivity of modified anti-inflammatory steroid, part 1: total radioactivity in organs (Test 7). The conditions noted are these: rats, i.v. 10 nmol/kg, 5 min.
For data set [3] the following is noted: rat, in vivo.
A short description of data set [4]: Distribution of sugar-modified AVP in organs (Test 1). In kind it is in vivo, male SD rats. The conditions noted are these: rats, i.v. 1 nmol/kg; for renal selectivity: 5 min after administration, concentration in organs and organ clearance as index (Figs. 1 and 2). The protocol: (§1) The organ clearance was determined by the following equation.
The organ clearance under the above experimental conditions is considered as a measure of the speed at which the compound is incorporated into the organs. The kidney is an organ which functions to perform glomerular filtration for the production of urine. The renal clearance of low-molecular weight compounds, which are likely to undergo glomerular filtration, is generally larger than the clearance for other organs. Further, under the above experimental conditions, it was estimated from the results on ^14C-labeled inulin that the incorporation of about 0.6 ml/min/g was carried out by glomerular filtration. Larger values indicate the incorporation of drugs into the kidney through blood vessels in addition to the glomerular filtration.

Data set [5] is described as follows: Renal selectivity (organ distribution) of thioglucoside-modified products (Test 6). The protocol: as §1
Organ distribution was studied on Glc-S-C8 and, in addition, thioglucoside modification products of AVP, tryptamine, NBD as a fluorescent dye, doxorubicin as an anticancer agent and the like. Glc-S-C8 (the labeled product was prepared by catalytic exchange with ^3H gas; the specific activity 40.7 GBq/mmol), AVP derivatives, and tryptamine derivatives were converted to ^3H-labeled product and then studied on organ selectivity in the same manner as in Test 1. For the NBD derivatives, an experiment on distribution was carried out under conditions of dose 10 nmol/kg and 3 min. The vital sample was deproteinized with acetonitrile, subjected to separation by reversed phase liquid chromatography, and then quantitatively determined by fluorescence detection. DXR and derivatives thereof were administered at a dose of 50 nmol/kg, and, 3 min after the administration, the distribution was detected in the same manner as used for the NBD derivatives.

Data set [6] can be described thus: Autoradiography of sugar-modified AVPs in the kidney (Test 2). The format is in vivo. The note with it: rats, 5 min after administration, compared with Gal-C8-O-AVP and AVP. As to the method: Sugar-modified AVPs were administered to rats. Five min after the administration, accumulation sites in the kidney were examined by autoradiography.
[7] abbreviates: rats, ^3H-labeled product, same manner as Test 1 (i.v. 1 nmol/kg, 5 min).

As to `C[C@@H]1C[C@H]2[C@@H]3CCC4=CC(=O)C=C[C@]4(C)[C@@]3(F)[C@@H](O)C[C@]2(C)[C@@]1(O)C(=O)CO` [dexamethasone], the concentration at 5 min in data set [1] (kidney, read-out: Concentration of dexamethasone: Kidney) amounted to 203 ± 39.3 nM. Also, the concentration at 5 min in data set [1] (liver, read-out: Concentration of dexamethasone: Liver) turned out to be 930 ± 119 nM. Further, the concentration at 5 min in data set [1] (plasma, read-out: Concentration of dexamethasone: Plasma) was determined as 116 ± 13.6 nM. In data set [2], the “Total conc. of dexamethasone in organ: Adrenal” value was found to be 24.65±0.95 pmol/g tissue, the “Total conc. of dexamethasone in organ: Blood” value is 7.61±0.49 pmol/g tissue, the “Total conc. of dexamethasone in organ: Fat” value is given as 2.74±1.12 pmol/g tissue and the “Total conc. of dexamethasone in organ: Heart” value turned out to be 14.86±1.05 pmol/g tissue. For the same compound, in data set [2], the “Total conc. of dexamethasone in organ: Kidney” value is 22.36±0.80 pmol/g tissue, the “Total conc. of dexamethasone in organ: Liver” value is given as 65.90±12.61 pmol/g tissue, the “Total conc. of dexamethasone in organ: Lung” value came out at 16.49±1.57 pmol/g tissue and the “Total conc. of dexamethasone in organ: Spleen” value was 11.04±0.25 pmol/g tissue.

With `CC[C@H](C)[C@@H]1NC(=O)[C@H](Cc2ccc(O)cc2)NC(=O)[C@@H](NC(=O)CCCCCCCCO[C@@H]2O[C@H](CO)[C@@H](O)[C@H](O)[C@H]2O)CSSC[C@@H](C(=O)N2CCC[C@H]2C(=O)N[C@@H](CC(C)C)C(=O)NCC(N)=O)NC(=O)[C@H](CC(N)=O)NC(=O)[C@H](CCC(N)=O)NC1=O` [Glc-O-C8-Oxy], in data set [3], the Hepatic clearance turned out to be 0.08 ± 0.00 mL/min/g and the Renal clearance turned out to be 1.05 ± 0.05 mL/min/g.

As for `N=C(N)NCCC[C@H](NC(=O)[C@@H]1CCCN1C(=O)[C@@H]1CSSC[C@H](NC(=O)CCCCCCCCO[C@@H]2O[C@H](CO)[C@H](O)[C@H](O)[C@H]2O)C(=O)N[C@@H](Cc2ccc(O)cc2)C(=O)N[C@@H](Cc2ccccc2)C(=O)N[C@@H](CCC(N)=O)C(=O)N[C@@H](CC(N)=O)C(=O)N1)C(=O)NCC(N)=O` [Gal-O-C8-AVP], the renal selectivity entry in data set [4] is given as “the renal selectivity was the same as that for AVP”.

With `N=C(N)NCCC[C@H](NC(=O)[C@@H]1CCCN1C(=O)[C@@H]1CSSC[C@H](NC(=O)CCCCCCCCO[C@H]2O[C@H](CO)[C@@H](O)[C@H](O)[C@@H]2O)C(=O)N[C@@H](Cc2ccc(O)cc2)C(=O)N[C@@H](Cc2ccccc2)C(=O)N[C@@H](CCC(N)=O)C(=O)N[C@@H](CC(N)=O)C(=O)N1)C(=O)NCC(N)=O` [Man(α)-O-C8-AVP], the renal selectivity entry in data set [4] was “the renal selectivity was the same as that for AVP”.

On to `COc1cccc2c1C(=O)c1c(O)c3c(c(O)c1C2=O)C[C@@](O)(C(=O)CO)C[C@@H]3O[C@H]1C[C@H](N)[C@H](O)[C@H](C)O1` [DXR, doxorubicin], for which, in data set [5] (rats, DXR and derivatives: dose 50 nmol/kg, 3 min after administration), the Renal clearance was found to be 0.54 ± 0.10 mL/min/g.

In data set [3], `CC[C@H](C)[C@@H]1NC(=O)[C@H](Cc2ccc(O)cc2)NC(=O)[C@@H](NC(=O)CCCCCCCCO[C@@H]2O[C@H](CO)[C@@H](O)[C@H](O)[C@@H]2O)CSSC[C@@H](C(=O)N2CCC[C@H]2C(=O)N[C@@H](CC(C)C)C(=O)NCC(N)=O)NC(=O)[C@H](CC(N)=O)NC(=O)[C@H](CCC(N)=O)NC1=O` [Man-O-C8-Oxy] had a Hepatic clearance of 0.14 ± 0.02 mL/min/g and a Renal clearance of 3.59 ± 0.17 mL/min/g.

In the case of `NCCc1c[nH]c2ccccc12` [Tryptamine], in data set [5] (setting [7]), the Conc. in kidney is 3.5±0.3 % of dose/g and the Renal clearance worked out at 0.63 ± 0.07 mL/min/g.

For the compound `N=C(N)NCCC[C@H](NC(=O)[C@@H]1CCCN1C(=O)[C@@H]1CSSC[C@H](NC(=O)CCCCCCCCO[C@H]2C[C@@H](O)[C@H](O)[C@@H](CO)O2)C(=O)N[C@@H](Cc2ccc(O)cc2)C(=O)N[C@@H](Cc2ccccc2)C(=O)N[C@@H](CCC(N)=O)C(=O)N[C@@H](CC(N)=O)C(=O)N1)C(=O)NCC(N)=O` [2dGlc-O-C8-AVP], the renal selectivity entry in data set [4] was “high renal selectivity”.

In the case of `COc1cccc2c1C(=O)c1c(O)c3c(c(O)c1C2=O)C[C@@](O)(C(=O)COC(=O)CCCCCCCCS[C@@H]1O[C@H](CO)[C@@H](O)[C@H](O)[C@H]1O)C[C@@H]3O[C@H]1C[C@H](N)[C@H](O)[C@H](C)O1` [Glc-S-C8-COO-DXR, 14-[9-(1-thio-β-D-glucopyranosyl)nonanoyl]doxorubicin], the “formation of free DXR in plasma and kidney” value in data set [5] (rat, in vivo) is reported as “could be confirmed”.

The compound `N=C(N)NCCC[C@H](NC(=O)[C@@H]1CCCN1C(=O)[C@@H]1CSSC[C@H](NC(=O)CCCCCCCCO[C@@H]2O[C@H](CO)[C@@H](O)[C@H](O)[C@H]2O)C(=O)N[C@@H](Cc2ccc(O)cc2)C(=O)N[C@@H](Cc2ccccc2)C(=O)N[C@@H](CCC(N)=O)C(=O)N[C@@H](CC(N)=O)C(=O)N1)C(=O)NCC(N)=O` [Glc-O-C8-AVP] gave a Renal clearance in data set [4] (5 min, Fig. 2) of 2.43 mL/min/g. Also, the renal selectivity entry in data set [4] is reported as “high renal selectivity”. For the same compound, in data set [6], the “concentration in cortical part and in the outer layer of the outer band in the medulla” value is on record as “clearly higher”; the “concentration in the medulla” value is “lower”.

As for `N=C(N)NCCC[C@H](NC(=O)[C@@H]1CCCN1C(=O)[C@@H]1CSSC[C@H](NC(=O)CCCCCCCCO[C@@H]2O[C@H](CO)[C@@H](O)[C@H](O)[C@@H]2O)C(=O)N[C@@H](Cc2ccc(O)cc2)C(=O)N[C@@H](Cc2ccccc2)C(=O)N[C@@H](CCC(N)=O)C(=O)N[C@@H](CC(N)=O)C(=O)N1)C(=O)NCC(N)=O` [Man-O-C8-AVP], the renal selectivity result in data set [4] is “high renal selectivity”.

(Values after EP0953357A1, “NEPHROTROPIC DRUGS” (Drug Delivery System Institute, Ltd., priority 1997, dated 1998).)
